Patent US20080124809A1, “Method of Interaction Observation” (RIKEN, priority 2004, published 2008)

Tests used:
anti-EST antibody = assay: SPR imaging of anti-EST antibody binding to the immobilized small molecular array; conditions: Example 1: photoimmobilized at 365 nm, 4 J/cm^2; 50 μg/mL antibody
anti-DIG antibody = assay: SPR imaging of anti-DIG antibody binding to the immobilized small molecular array; conditions: 4 J/cm^2; for binding of anti-DIG antibody to immobilized substance (FIG. 15): Comparative Example 2: irradiated at 245 nm, 50 μg/mL antibody run for 5 minutes; for binding of anti-DIG antibody to immobilized substance (FIG. 12): Example 1: photoimmobilized at 365 nm, 50 μg/mL antibody

With CC(=O)[C@H]1CC[C@H]2[C@@H]3CCC4=CC(=O)CC[C@]4(C)[C@H]3CC[C@]12C [PGS, Progesterone] the “binding of anti-EST antibody to immobilized substance (FIG. 13)” value (“binding of anti-EST antibody” for short) (anti-EST antibody) was “No binding”.
With C[C@H]1O[C@@H](O[C@H]2[C@@H](O)C[C@H](O[C@H]3[C@@H](O)C[C@H](O[C@H]4CC[C@@]5(C)[C@H](CC[C@@H]6[C@@H]5C[C@@H](O)[C@]5(C)[C@@H](C7=CC(=O)OC7)CC[C@]65O)C4)O[C@@H]3C)O[C@@H]2C)C[C@H](O)[C@@H]1O [DIG, digoxin] the “binding of anti-DIG antibody to immobilized substance (FIG. 15)” value (anti-DIG antibody) was “observed” and the “binding of anti-DIG antibody to immobilized substance (FIG. 12)” value (anti-DIG antibody) was “obvious”.
In the case of C[C@H]1O[C@@H](O[C@H]2[C@@H](O)C[C@H](O[C@H]3[C@@H](O)C[C@H](O[C@H]4CC[C@@]5(C)[C@H](CC[C@@H]6[C@@H]5CC[C@]5(C)[C@@H](C7=CC(=O)OC7)CC[C@]65O)C4)O[C@@H]3C)O[C@@H]2C)C[C@H](O)[C@@H]1O [DTN, digitoxin], the “binding of anti-DIG antibody to immobilized substance (FIG. 15)” value (anti-DIG antibody) is reported as “observed” and the “binding of anti-DIG antibody to immobilized substance (FIG. 12)” value (anti-DIG antibody) is reported as “obvious”.
With C[C@]12CC[C@@H]3c4ccc(O)cc4CC[C@H]3[C@@H]1CC[C@@H]2O [EST, β-Estradiol] the “binding of anti-EST antibody” value (anti-EST antibody) was “bound to only the spots of EST”.
In the case of C[C@]12CCC(=O)C=C1CC[C@@H]1[C@@H]2[C@@H](O)C[C@@]2(C)[C@H]1CC[C@]2(O)C(=O)CO [HCN, Hydrocortisone], the “binding of anti-EST antibody” value (anti-EST antibody) is reported as “No binding”.
